Data from ChEMBL document CHEMBL5247651, “Oxadiazolopyridine Derivatives as Efficacious Mitochondrial Uncouplers in the Prevention of Diet-Induced Obesity” (J Med Chem, 2023).
Activity calls are given as the source filed them. The rule behind the calls is not given here.

Assays:
[1] = Cmax in C57BL/6 mouse at 1 mg/kg, iv measured upto 24 hrs by LC/MS-MS analysis; format: ADME, organism-based; design: time < 24 hrs, dose 1 mg/kg, route iv; conditions: in vivo
Mus musculus [2] = assay: Anti-obesity activity in high-sugar western diet induced obesity C57BL/6j mouse model assessed as decrease in muscle weight at 130 mg/kg per day, po administered via gavage daily measured after 3 weeks; format: functional, organism-based
Mus musculus [3] = assay: Anti-obesity activity in high-sugar western diet induced obesity C57BL/6j mouse model assessed as decrease in retroperitoneal fat pad weight at 130 mg/kg per day, po administered via gavage daily measured after 3 weeks; format: functional, organism-based
Mus musculus [4] = assay: Anti-obesity activity in high-sugar western diet induced obesity C57BL/6j mouse model assessed as food consumption at 130 mg/kg per day, po administered for 14 days ( Rvb = 2.5 +/- 0.5 g/day per mouse); format: functional; conditions: time 14 day
[5] = Apparent permeability across apical to basolateral side in human Caco-2 cells; format: ADME, cell-based
Mus musculus [6] = assay: Anti-obesity activity in high-fat diet induced obesity C57BL/6 mouse model assessed as increase in carbohydrate oxidation at 130 mg/kg, po measured upto 4 hrs by indirect calorimetric analysis; format: functional, organism-based
[7] = Drug distribution in fasted C57BL/6j mouse liver at 10 mg/kg, po measured after 2 hrs by LC-MS/MS analysis; format: ADME, organism-based; conditions: in vivo
Mus musculus [8] = assay: Anti-obesity activity in high-sugar western diet induced obesity C57BL/6j mouse model assessed as decrease in gonadal white adipose tissue weight at 130 mg/kg per day, po administered via gavage daily measured after 3 weeks; format: functional, organism-based
[9] = Observed apparent volume of distribution in C57BL/6 mouse at 10 mg/kg, po measured upto 24 hrs by LC/MS-MS analysis; format: ADME, organism-based; conditions: in vivo
Mus musculus [10] = assay: Anti-obesity activity in high-sugar western diet induced obesity C57BL/6j mouse model assessed as reversal of body weight at 130 mg/kg per day, po administered via gavage daily measured after 3 weeks; format: functional, organism-based
[11] = Induction of mitochondrial uncoupling activity in rat L6 cells assessed as increase in oxygen consumption rate measured after 90 mins by agilent Seahorse XF analyzer; format: functional, cell-based
Mus musculus [12] = assay: Anti-obesity activity in high-sugar western diet induced obesity C57BL/6j mouse model assessed as decrease in fat-free mass body composition at 130 mg/kg per day, po administered measured after 2 weeks by EchoMRI analysis (reference value: 77%); format: functional; design: scale not given: the % may be the effect or the level left
[13] = Drug distribution in fasted C57BL/6j mouse liver at 130 mg/kg, po by LC-MS/MS analysis; format: ADME, organism-based; conditions: in vivo

With `Oc1nc2nonc2cc1Nc1c(F)c(F)c(F)c(F)c1F` the Cmax [1] was 16 µM, the Activity (Mus musculus [2]) was “inactive” and the Activity (Mus musculus [3]) was “inactive”. The Activity (Mus musculus [4]) was 2.5 g/day, the Papp A→B [5] was 12.4 ×10⁻⁶ cm/s and the Activity (Mus musculus [6]) was “Active”. For the same compound, the Drug uptake [7] was “Active”, the Activity (Mus musculus [8]) was “Active” and the Vz [9] was 0.74 L/kg. The Activity (Mus musculus [10]) was “Active”, the EC50 [11] was 17.1 µM and the pEC50 [11] was 4.8. For the same compound, the Activity (Mus musculus [12]) was 84% and the Drug uptake [13] was “Active”.
